Measurements reported in patent US6552006B2, “Immunomodulatory polynucleotides in treatment of an infection by an intracellular pathogen” (The Regents of the University of California, priority 2000, dated 2003).

Experiments:
M. avium [1] = test: Growth of M. avium in vivo in C57B1/6 mice, CFU per organ; design: species or system Mycobacterium avium
mBMDM = test: Viability of mBMDM (trypan-blue exclusion); format: cell-based, mouse
Procedure: To examine whether treatment with ISS can stimulate macrophages to inhibit the growth of M. avium, mBMDM (5×10^4 mBMDM/well) was first treated with ISS or M-ODN for 72 hrs and then infected with M. avium. Then, cellular CFU was counted on days 1, 3, and 7 post-infection (FIG. 9A). By day 7, treatment with ISS inhibited intracellular growth of M. avium in mBMDM by 80% (p<0.001). Since viability of macrophages can affect M. avium growth, the viability of macrophages was assessed by trypan-blue exclusion. […]

[2] = tested on: indoleamine 2,3-dioxygenase (IDO); test: IDO gene induction in vivo in mice, semi-quantitative RT-PCR; conditions: injection of M-ODN in mice
M. avium [3] = test: Intracellular growth of M. avium in mouse bone marrow-derived macrophages (mBMDM) in vitro, CFU assay; format: cell-based, Mycobacterium avium; conditions: for % of CFU: 10 μg/ml 72 h prior to infection, day 7, medium alone = 100%; for M. avium growth in mBMDM: L-try (final 66 μg/ml) or M-try (125 μM) alone; for reductions in the anti-mycobacterial ability of ISS treatment: M. avium-infected mBMDM cultured with L-try (66 μg/ml) or M-try (125 μM) supplemented media plus ISS
Procedure: A previously studied M. avium strain 13 (Hayashi, et al. (1999) Infect. Immun. 67:3558-3565; Meylan, et al. (1990) Infect. Immun. 58:2564-2568), isolated from an AIDS patient at UCSD, San Diego, Calif., was used in all experiments. The organism was cultured on Middlebrook 7H11 agar (Difco Laboratories, Detroit, Mich.) with OADC enrichment at 37° C. in the presence of 5% CO2 for two weeks. Transparent colonies were selectively picked and further cultured on Middlebrook 7H11 plates for two more weeks. The resulting colonies, which were predominantly transparent (>90%), were then collected and washed two times with phosphate-buffered saline (PBS). The bacteria were finally resuspended in Middlebrook 7H9 broth (Difco Laboratories) and the OD600 of the suspension was adjusted to 0.15-0.2. The suspension was aliquoted and stored at −70° C. until use. The number of organisms/ml of this suspension was determined by the colony forming unit (CFU) assay.
The number of CFU in a given sample was determined by colony counting as described previously (Ogata, et al. (1992) Infect. Immun. 60:4720-4725). Serial 10-fold dilutions of total cell lysates or tissue homogenates were performed in PBS. 10 μl of each dilution were plated on Middlebrook 7H11 plates supplemented with OADC enrichment. The plates were incubated up to 14 days at 37° C. The number of colonies was counted every alternate day from day 10 onwards until no new colonies appeared. This yielded the number of CFU/10 μl. The number of CFU in each well was then calculated.
Preparation of Murine Macrophages. Mouse bone marrow-derived macrophages (mBMDM) were prepared from mouse bone marrow using L-cell conditioned media, as described in Martin-Orozco, et al. (1999) […] 11:1111-1118.
Alternatively, 5×10^4 mBMDM or hMDM was treated with ISS for 3 days before infection. Macrophages treated with M-ODN or with media alone served as controls. After 3 days, the cells were infected for 2 hrs with M. avium at a macrophage:bacteria ratio of 2:1 for mBMDM or of 1:10 for hMDM, and subsequently cultured in fresh media without antibiotics. To examine attachment and/or invasion of M. avium, the macrophages were lysed immediately after washing, and the number of bacteria were enumerated by the CFU assay. Intracellular growth of M. avium was determined on days 1, 3, and 7 after infection. To account for all the mycobacteria in each group, corresponding lysates were combined and then the number of CFU was determined. To examine the efficacy of anti-mycobacterial treatments, CFU recovered from cells treated with medium alone were considered as 100% growth.
To determine whether treatment with ISS after infection alters M. avium growth, adherent cells were first infected with M. avium for 2 hrs and then these cells were cultured with fresh media containing ISS. Infected cells treated with M-ODN or medium alone served as controls. At day 7, intracellular growth of M. avium was assessed by CFU assay.

L. major = conditions: BALB/c mice; injection four hours after inoculation with live L. major promastigotes; cited from earlier work
[4] = C57B1/6 mice, 10^7 CFU i.v., treatment from one week after infection, CLA 200 mg/kg alone, 5 weeks after infection

5′-TGACTGTGAAGGTTAGAGATGA-3′ (SEQ ID NO:3) (chemistry not given here) [M-ODN, mutated control oligodeoxynucleotide with 2 base alteration of the CpG motif]
CFU in the spleen and lungs compared with control (PBS) mice (M. avium [1]; 10^7 organisms/mouse, four weeks after infection): similar | viable mBMDM (mBMDM): > 90% | induction of IDO after injection [2]: did not result in any detectable induction of IDO | % of CFU (M. avium [3]; mBMDM from IFN-αR−/− 129S6/SvEv): 106.9 ± 11.9% | % of CFU (M. avium [3]; mBMDM from IFN-γR−/− 129S6/SvEv): 108.1 ± 10.8% | % of CFU (M. avium [3]; mBMDM from IL-12 p40−/− C57B1/6): 117.6 ± 9.2% | % of CFU (M. avium [3]; mBMDM from INOS−/− C57B1/6): 105.0 ± 13.9% | % of CFU (M. avium [3]; mBMDM from NADPH oxidase−/− (gp91 phox−/−) C57B1/6): 107.0 ± 15.5% | % of CFU (M. avium [3]; mBMDM from TNF-α−/− C57B1/6): 120.0 ± 20.0% | % of CFU (M. avium [3]; mBMDM from Wild type 129S6/SvEV): 110.0 ± 15.9% | % of CFU (M. avium [3]; mBMDM from Wild type C57B1/6): 117.2 ± 18.5%

Cn1cc(CC(N)C(=O)O)c2ccccc21 (racemic) [M-try, 1-methyl-DL-tryptophan]
viability of mBMDM (mBMDM; L-try (final 66 μg/ml) or M-try (125 μM) alone): did not alter | M. avium growth in mBMDM (M. avium [3]): did not alter | reductions in the anti-mycobacterial ability of ISS treatment (M. avium [3]): 4 fold

CC[C@H]1OC(=O)[C@H](C)[C@@H](O[C@H]2C[C@@](C)(OC)[C@@H](O)[C@H](C)O2)[C@H](C)[C@@H](O[C@@H]2O[C@H](C)C[C@H](N(C)C)[C@H]2O)[C@](C)(OC)C[C@@H](C)C(=O)[C@H](C)[C@@H](O)[C@]1(C)O [CLA, Clarithromycin, reference compound]
decrease of bacterial growth in the liver (M. avium [1]; [4]): 4 log | decrease of bacterial growth in the lungs (M. avium [1]; [4]): 1.5 log | decrease of bacterial growth in the spleen (M. avium [1]; [4]): 4 log | reduction of bacterial growth in mBMDM (M. avium [3]; mBMDM infected first, then treated, ISS 10 μg/ml, CLA 0.1 μg/ml, 7 days after infection, compared to medium alone): 84%

N[C@@H](Cc1c[nH]c2ccccc12)C(=O)O [L-try, L-tryptophan]
M. avium growth in mBMDM (M. avium [3]): did not alter | reductions in the anti-mycobacterial ability of ISS treatment (M. avium [3]): 4 fold

CpG-ODN 1826
animals protected from progressive infection (L. major): 65%
